The source made the active and inactive calls. No cut-off for these calls is given here.
How the values were obtained:
Melanocortin receptor 4 [1] = biological target: T1, Melanocortin receptor 4 (Homo sapiens, UniProt P32245); assay: Antagonist activity at human MC4 receptor in HEK293 cells assessed as inhibition of alpha-MSH stimulated cAMP production
Melanocortin receptor 4 [2] = biological target: T1, Melanocortin receptor 4; assay: Displacement of [125I]NDP-MSH from MC4R receptor in HEK293 cells; format: cell-based
in vivo [3] = conditions: C57BL/6J, mouse, plasma, iv, 5 mg/kg
Mus musculus [4] = assay: Increase in food intake in LLC-tumor bearing C57BL/6J mouse at 3 mg/kg, ip relative to control; format: functional, organism-based; parameters: dose 3 mg/kg
[5] = biological target: Growth hormone secretagogue receptor type 1 (Homo sapiens, UniProt Q92847); assay: Agonist activity at ghrelin receptor; format: functional
in vivo [6] = conditions: C57BL/6J, mouse, brain, iv, 5 mg/kg
Melanocortin receptor 4 [7] = biological target: Melanocortin receptor 4 (Rattus norvegicus, UniProt P70596); assay: Binding affinity to rat MC4 receptor
Melanocortin receptor 5 = Melanocortin receptor 5 (Homo sapiens, UniProt P33032); assay: Displacement of [125I]NDP-MSH from MC5R receptor in HEK293 cells; format: cell-based
Mus musculus [8] = assay: Increase in body weight in LLC-tumor bearing C57BL/6J mouse at 3 mg/kg, ip; format: functional, organism-based; parameters: dose 3 mg/kg
in vivo [9] = conditions: C57BL/6J, mouse, po, 10 mg/kg
Mus musculus [10] = assay: Increase in body weight in LLC-tumor bearing C57BL/6J mouse at 9 mg/kg, ip; format: functional, organism-based; parameters: dose 9 mg/kg
in vivo [11] = conditions: C57BL/6J, mouse, iv, 5 mg/kg
in vivo [12] = conditions: C57BL/6J, mouse, brain, iv, 5 mg/kg; remark: listed apart in the source
Mus musculus [13] = assay: Increase in food intake in LLC-tumor bearing C57BL/6J mouse at 9 mg/kg, ip relative to control; format: functional, organism-based; parameters: dose 9 mg/kg
Mus musculus [14] = assay: Increase in fat mass in LLC-tumor bearing C57BL/6J mouse at 3 mg/kg, ip; format: functional; conditions: route intraperitoneal
Mus musculus [15] = assay: Increase in fat mass in LLC-tumor bearing C57BL/6J mouse at 9 mg/kg, ip; format: functional; conditions: route intraperitoneal
in vivo [16] = conditions: C57BL/6J, mouse, plasma, iv, 5 mg/kg; remark: listed apart in the source
Mus musculus [17] = assay: Increase in lean body mass in LLC-tumor bearing C57BL/6J mouse at 3 mg/kg, ip; format: functional; conditions: route intraperitoneal
in vivo [18] = conditions: C57BL/6J, mouse, brain, iv, 5 mg/kg; remark: listed apart in the source
Melanocortin receptor 3 = Melanocortin receptor 3 (Homo sapiens, UniProt P41968); assay: Displacement of [125I]NDP-MSH from MC3R receptor in HEK293 cells; format: cell-based
in vivo [19] = conditions: C57BL/6J, mouse, plasma, po, 10 mg/kg
in vivo [20] = conditions: C57BL/6J, mouse, iv, 5 mg/kg; remark: listed apart in the source
in vivo [21] = conditions: C57BL/6J, mouse, brain, iv, 5 mg/kg; remark: listed apart in the source
[22] = biological target: Melanocyte-stimulating hormone receptor (Homo sapiens) (UniProt Q01726); assay: Displacement of [125I]NDP-MSH from MC1R receptor in HEK293 cells; format: cell-based
in vivo [23] = conditions: C57BL/6J, mouse, po, 10 mg/kg; remark: listed apart in the source
physchem = conditions: octanol/water
in vivo [24] = conditions: C57BL/6J, mouse, po, 10 mg/kg; remark: listed apart in the source
Mus musculus [25] = assay: Increase in lean body mass in LLC-tumor bearing C57BL/6J mouse at 9 mg/kg, ip; format: functional; conditions: route intraperitoneal
Melanocortin receptor 4 [26] = biological target: Melanocortin receptor 4 (Mus musculus, UniProt P56450); assay: Binding affinity to C57BL/6J mouse MC4 receptor
[27] = AUC (0 to 24 hrs) in brain of C57BL/6J mouse at 5 mg/kg, iv; format: ADME, organism-based; parameters: time < 24 hr, dose 5 mg/kg, route intravenous

Chain of Melanocortin receptor 5 (P33032 whole entry): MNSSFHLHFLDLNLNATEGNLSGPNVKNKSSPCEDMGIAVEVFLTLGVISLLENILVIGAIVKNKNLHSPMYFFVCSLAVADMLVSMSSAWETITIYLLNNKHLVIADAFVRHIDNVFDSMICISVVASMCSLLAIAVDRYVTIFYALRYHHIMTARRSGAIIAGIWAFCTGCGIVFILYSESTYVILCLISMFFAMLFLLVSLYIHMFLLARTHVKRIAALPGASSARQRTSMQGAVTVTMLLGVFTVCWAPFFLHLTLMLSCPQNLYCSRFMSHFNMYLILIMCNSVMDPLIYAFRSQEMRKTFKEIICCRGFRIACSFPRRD
Chain of Melanocyte-stimulating hormone receptor (Homo sapiens) (Q01726 whole entry, looked up): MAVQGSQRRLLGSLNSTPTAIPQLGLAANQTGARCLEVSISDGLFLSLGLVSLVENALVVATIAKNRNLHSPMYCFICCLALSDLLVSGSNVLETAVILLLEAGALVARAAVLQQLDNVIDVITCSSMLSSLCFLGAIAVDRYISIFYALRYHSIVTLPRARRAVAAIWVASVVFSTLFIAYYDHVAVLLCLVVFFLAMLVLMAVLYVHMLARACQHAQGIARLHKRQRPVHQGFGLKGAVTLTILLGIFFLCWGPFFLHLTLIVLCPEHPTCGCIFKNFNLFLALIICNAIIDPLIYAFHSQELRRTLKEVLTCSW
T1 sequence (P32245 whole entry): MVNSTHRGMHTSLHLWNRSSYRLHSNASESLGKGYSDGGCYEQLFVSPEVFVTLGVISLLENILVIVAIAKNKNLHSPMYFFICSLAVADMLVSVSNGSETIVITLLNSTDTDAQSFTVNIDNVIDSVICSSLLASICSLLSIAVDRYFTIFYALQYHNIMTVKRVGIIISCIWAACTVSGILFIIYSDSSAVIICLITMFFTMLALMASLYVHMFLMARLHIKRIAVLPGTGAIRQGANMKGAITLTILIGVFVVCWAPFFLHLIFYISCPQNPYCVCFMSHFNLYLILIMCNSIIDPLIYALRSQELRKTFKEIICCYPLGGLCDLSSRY
Chain of Melanocortin receptor 3 (P41968 whole entry): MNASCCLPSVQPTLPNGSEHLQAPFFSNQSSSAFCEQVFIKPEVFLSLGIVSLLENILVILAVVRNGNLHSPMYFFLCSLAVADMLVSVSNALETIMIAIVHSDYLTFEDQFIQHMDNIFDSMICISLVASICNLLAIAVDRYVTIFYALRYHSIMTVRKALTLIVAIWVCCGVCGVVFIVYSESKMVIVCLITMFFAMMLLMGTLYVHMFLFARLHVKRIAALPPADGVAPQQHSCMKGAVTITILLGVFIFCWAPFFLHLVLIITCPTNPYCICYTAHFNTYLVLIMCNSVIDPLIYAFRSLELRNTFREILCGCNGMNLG
Chain of Growth hormone secretagogue receptor type 1 (Q92847 whole entry): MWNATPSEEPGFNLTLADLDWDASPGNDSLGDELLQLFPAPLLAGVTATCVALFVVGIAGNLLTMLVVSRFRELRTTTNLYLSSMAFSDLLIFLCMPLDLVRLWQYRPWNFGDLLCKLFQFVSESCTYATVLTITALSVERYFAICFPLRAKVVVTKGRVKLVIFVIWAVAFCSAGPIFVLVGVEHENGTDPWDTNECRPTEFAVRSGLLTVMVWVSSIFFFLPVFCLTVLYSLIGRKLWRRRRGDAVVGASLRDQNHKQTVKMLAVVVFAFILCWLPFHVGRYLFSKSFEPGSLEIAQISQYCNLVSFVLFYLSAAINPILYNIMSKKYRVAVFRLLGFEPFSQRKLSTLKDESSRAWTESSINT
Chain of Melanocortin receptor 4 (Rattus norvegicus, UniProt P70596) (P70596 whole entry): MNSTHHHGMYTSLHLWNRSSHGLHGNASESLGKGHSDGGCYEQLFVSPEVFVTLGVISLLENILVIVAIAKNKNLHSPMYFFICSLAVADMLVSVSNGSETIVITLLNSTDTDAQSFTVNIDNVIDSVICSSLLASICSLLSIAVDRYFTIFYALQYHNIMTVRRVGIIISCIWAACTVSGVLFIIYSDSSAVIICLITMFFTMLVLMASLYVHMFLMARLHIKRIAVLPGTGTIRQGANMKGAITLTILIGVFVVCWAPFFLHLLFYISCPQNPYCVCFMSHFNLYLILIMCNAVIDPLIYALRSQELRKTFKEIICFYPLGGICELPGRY
Chain of Melanocortin receptor 4 (Mus musculus, UniProt P56450) (P56450 whole entry): as the sequence (P70596 whole entry) above, with H21Y, S36P, T199S, A239T, P329S, G330S counted along it

With `CC(=O)N[C@H](Cc1ccc(Cl)cc1Cl)C(=O)N1CCN(c2c(F)cccc2[C@@H](N)CC(C)C)CC1` the Activity (Melanocortin receptor 4 [1]) was “Dose-dependent effect” and the Ki (Melanocortin receptor 4 [2]) was 7.5 nM.
In the case of `CC(C)C[C@H](N)c1cc(C(F)(F)F)ccc1N1CCN(C(=O)[C@@H](Cc2ccc(Cl)cc2Cl)NC(=O)C2CCNCC2)CC1`, the Activity (Melanocortin receptor 4 [1]) is reported as “Dose-dependent effect” and the Ki (Melanocortin receptor 4 [2]) is reported as 0.8 nM.
With `CC(C)C[C@H](N)c1ccccc1N1CCN(C(=O)[C@@H](Cc2ccc(Cl)cc2)N2CCCC2=O)CC1` the Activity (Melanocortin receptor 4 [1]) was “Dose-dependent effect” and the Ki (Melanocortin receptor 4 [2]) was 38 nM.
With `CC(C)C[C@H](N)c1cc(C(F)(F)F)ccc1N1CCN(C(=O)[C@@H](Cc2ccc(Cl)cc2Cl)NC(=O)CN)CC1` the Activity (Melanocortin receptor 4 [1]) was “Dose-dependent effect” and the Ki (Melanocortin receptor 4 [2]) was 1.8 nM.
With `CC(C)C[C@H](N)c1cc(C(F)(F)F)ccc1N1CCN(C(=O)[C@@H](Cc2ccc(Cl)cc2)N2CCCC2=O)CC1` the clearance (in vivo [3]) was 31 mL/min/kg, the Activity (Mus musculus [4]) was “Active” and the EC50 [5] was 4100 nM. The Intrinsic activity [5] was 47%, the Kp at 1 h (in vivo [6]) was 1.27 and the Ki (Melanocortin receptor 4 [7]) was 9.1 nM. For the same compound, the Ki (Melanocortin receptor 5) was 990 nM, the Activity (Mus musculus [8]) was “Active” and the Tmax (in vivo [9]) was 0.5 h. The IC50 (Melanocortin receptor 4 [1]) was 510 nM, the Activity (Mus musculus [10]) was “Active” and the half-life (in vivo [11]) was 2.2 h. The Ki (Melanocortin receptor 4 [2]) was 11 nM, the concentration at 4 h (in vivo [12]) was 154 ng/g and the Activity (Mus musculus [13]) was “Active”. The Activity (Mus musculus [14]) was 10%, the Activity (Mus musculus [15]) was 10% and the AUC (in vivo [16]) was 2680 ng·h/mL. The Activity (Mus musculus [17]) was 20%, the Kp at 4 h (in vivo [18]) was 0.81 and the Ki (Melanocortin receptor 3) was 1800 nM. The AUC (in vivo [19]) was 2270 ng·h/mL, the Vd (in vivo [20]) was 5.8 L/kg and the concentration at 1 h (in vivo [21]) was 484 ng/g. It also gave an Activity [22] of 31%, a bioavailability (in vivo [23]) of 42.4% and a logD (physchem) of 3.1. For the same compound, the Cmax (in vivo [24]) was 270 ng/mL, the Activity (Mus musculus [25]) was 20% and the Ki (Melanocortin receptor 4 [26]) was 5.5 nM.
In the case of `CC(=O)N[C@H](Cc1ccc(Cl)cc1Cl)C(=O)N1CCN(c2c([C@H](N)CC(C)C)cccc2C(F)(F)F)CC1`, the Activity (Melanocortin receptor 4 [1]) is reported as “Dose-dependent effect” and the Ki (Melanocortin receptor 4 [2]) is reported as 47 nM.
For `CC(C)C[C@@H](N)c1cccc(F)c1N1CCN(C(=O)[C@@H](Cc2ccc(Cl)cc2Cl)NC(=O)CN)CC1`, the Activity (Melanocortin receptor 4 [1]) was “Dose-dependent effect” and the Ki (Melanocortin receptor 4 [2]) was 7.1 nM.
In the case of `CC(C)C[C@H](N)c1cc(C(F)(F)F)ccc1N1CCN(C(=O)[C@@H](Cc2ccc(Cl)cc2Cl)N2CCCC2=O)CC1`, the Activity [22] is reported as 21%.
With `CC(C)C[C@@H](N)c1cccc(C(F)(F)F)c1N1CCN(C(=O)[C@@H](Cc2ccc(Cl)cc2Cl)NC(=O)CCN)CC1` the Activity (Melanocortin receptor 4 [1]) was “Dose-dependent effect” and the Ki (Melanocortin receptor 4 [2]) was 29 nM.
In the case of `CC(C)C[C@H](N)c1cccc(F)c1N1CCN(C(=O)[C@@H](Cc2ccc(Cl)cc2Cl)N2CCCC2=O)CC1`, the Activity (Melanocortin receptor 4 [1]) is reported as “Dose-dependent effect”.
With `CC(=O)N[C@H](Cc1ccc(Cl)cc1Cl)C(=O)N1CCN(c2ccc(F)cc2[C@H](N)CC(C)C)CC1` the Activity (Melanocortin receptor 4 [1]) was “Dose-dependent effect” and the Ki (Melanocortin receptor 4 [2]) was 26 nM.
For `CC(=O)N[C@H](Cc1ccc(Cl)cc1Cl)C(=O)N1CCN(c2c(F)cccc2[C@H](N)CC(C)C)CC1`, the Activity (Melanocortin receptor 4 [1]) was “Dose-dependent effect” and the Ki (Melanocortin receptor 4 [2]) was 6 nM.
Compound `CC(C)C[C@H](N)c1cc(C(F)(F)F)ccc1N1CCN(C(=O)[C@@H](Cc2ccc(Cl)cc2Cl)N2CCNCC2=O)CC1` has a clearance (in vivo [3]) of 20 mL/min/kg, a Kp at 1 h (in vivo [6]) of 0.07 and an AUC(0-t) at 24 h [27] of 1260 ng/g.hr. For the same compound, the Ki (Melanocortin receptor 5) was 360 nM, the Tmax (in vivo [9]) was 0.5 h and the IC50 (Melanocortin receptor 4 [1]) was 210 nM. The half-life (in vivo [11]) was 7.7 h, the Ki (Melanocortin receptor 4 [2]) was 4.5 nM and the concentration at 4 h (in vivo [12]) was 46 ng/g. The AUC (in vivo [16]) was 3940 ng·h/mL, the Kp at 4 h (in vivo [18]) was 0.24 and the Ki (Melanocortin receptor 3) was 950 nM. For the same compound, the AUC (in vivo [19]) was 1530 ng·h/mL, the Vd (in vivo [20]) was 13 L/kg and the concentration at 1 h (in vivo [21]) was 41 ng/g. It also gave an Activity [22] of 23%, a bioavailability (in vivo [23]) of 19.4% and a logD (physchem) of 2.8. It also gave a Cmax (in vivo [24]) of 214 ng/mL.
For `CC(=O)N[C@H](Cc1ccc(Cl)cc1Cl)C(=O)N1CCN(c2ccc(C(F)(F)F)cc2[C@@H](N)CC(C)C)CC1`, the Activity (Melanocortin receptor 4 [1]) was “Dose-dependent effect” and the Ki (Melanocortin receptor 4 [2]) was 1.8 nM.
For `CC(C)C[C@H](N)c1cccc(C(F)(F)F)c1N1CCN(C(=O)[C@@H](Cc2ccc(Cl)cc2Cl)NC(=O)CN)CC1`, the Activity (Melanocortin receptor 4 [1]) was “Dose-dependent effect” and the Ki (Melanocortin receptor 4 [2]) was 3.3 nM.
For `CC(C)C[C@H](N)c1cc(C(F)(F)F)ccc1N1CCN(C(=O)[C@H](N)Cc2ccc(Cl)cc2Cl)CC1`, the Activity (Melanocortin receptor 4 [1]) was “Dose-dependent effect” and the Ki (Melanocortin receptor 4 [2]) was 39 nM.
With `CC(C)C[C@@H](N)c1cc(C(F)(F)F)ccc1N1CCN(C(=O)[C@@H](Cc2ccc(Cl)cc2Cl)NC(=O)CCN)CC1` the Activity (Melanocortin receptor 4 [1]) was “Dose-dependent effect” and the Ki (Melanocortin receptor 4 [2]) was 10 nM.
With `CC(C)C[C@H](N)c1cc(C(F)(F)F)ccc1N1CCN(C(=O)[C@@H](Cc2ccc(Cl)cc2Cl)NC(=O)CCN)CC1` the Activity (Melanocortin receptor 4 [1]) was “Dose-dependent effect” and the Ki (Melanocortin receptor 4 [2]) was 1 nM.
With `CC(C)C[C@H](N)c1cccc(F)c1N1CCN(C(=O)[C@@H](Cc2ccc(Cl)cc2Cl)NC(=O)CCN)CC1` the Ki (Melanocortin receptor 5) was 240 nM, the Activity (Melanocortin receptor 4 [1]) was “Dose-dependent effect” and the Ki (Melanocortin receptor 4 [2]) was 0.8 nM. It also gave a Ki (Melanocortin receptor 3) of 450 nM.
For `CC(C)C[C@H](N)c1cccc(F)c1N1CCN(C(=O)[C@@H](Cc2ccc(Cl)cc2Cl)NC(=O)CN)CC1`, the Activity (Melanocortin receptor 4 [1]) was “Dose-dependent effect” and the Ki (Melanocortin receptor 4 [2]) was 3.3 nM.
For `CC(C)C[C@@H](N)c1cccc(F)c1N1CCN(C(=O)[C@@H](Cc2ccc(Cl)cc2Cl)NC(=O)CCN)CC1`, the Activity (Melanocortin receptor 4 [1]) was “Dose-dependent effect” and the Ki (Melanocortin receptor 4 [2]) was 2.3 nM.
For `CC(C)C[C@@H](N)c1cccc(C(F)(F)F)c1N1CCN(C(=O)[C@@H](Cc2ccc(Cl)cc2Cl)NC(=O)CN)CC1`, the Activity (Melanocortin receptor 4 [1]) was “Dose-dependent effect” and the Ki (Melanocortin receptor 4 [2]) was 49 nM.
For `CC(C)C[C@H](N)c1cc(C(F)(F)F)ccc1N1CCN(C(=O)[C@H](Cc2ccc(Cl)cc2)N2CCCC2=O)CC1`, the Activity (Melanocortin receptor 4 [1]) was “Dose-dependent effect” and the Ki (Melanocortin receptor 4 [2]) was 8.8 nM.
For `CC(C)C[C@H](N)c1cccc(C(F)(F)F)c1N1CCN(C(=O)[C@@H](Cc2ccc(Cl)cc2Cl)NC(=O)CCN)CC1`, the Activity (Melanocortin receptor 4 [1]) was “Dose-dependent effect” and the Ki (Melanocortin receptor 4 [2]) was 2.5 nM.
